Test results taken from patent publication US12396997B2, “Methods of treatment with an iboga alkaloid” (priority 2022, dated 2025).
“And” between values parts separate entries of the source, which are not always exact repeats. Identical values can stand only once. “Also recorded” adds a separate entry of the source.

What was measured:
[1] = tested on: special operations veterans with history of TBI; test: Safety monitoring during and after ibogaine treatment (adverse events, QTc by ECG); type: in vivo, human
Description: 12 participants (40%) were treated for headache. 7 (23%) for nausea. 3 (10%) for anxiety. 2 (7%) for hypertension, and 1 (3%) for insomnia.
(§1) With subjects in the fasting state, an intravenous infusion of 1 gram of magnesium sulfate was administered 1-2 hours prior to treatment. […] Medical staff (MD, RN, or EMT) were onsite at a ratio of at least 1 staff per 2 patients throughout treatment for monitoring and management, but no specific coaching or psychological support was provided during treatment.

[2] = orally administered to humans; cited from earlier work
[3] = tested on: brain-derived neurotrophic factor (BDNF) and glial cell line-derived neurotrophic factor (GDNF); settings: literature; cited from earlier work
[4] = tested on: special operations veterans with history of TBI; test: Predicted brain age from MRI with brain age model; type: in vivo, human; settings: one-month post treatment; FIG. 9D
From the text: A predictive model of normal aging defined using machine learning in healthy individuals, based on magnetic resonance imaging-derived estimates of gray matter and white matter (Id.) was applied to the MRI images from the subjects enrolled in the study of Example 1. […] There was a significant reversal of brain age from baseline to one month after treatment. The mean decrease in brain age was 1.3 years (corrected p=0.03).
At baseline, the brain age estimate for the 24 subjects was 40.89 years. […] The average decrease in brain age from baseline one month after treatment was 1.4 years.

[5] = tested on: special operations veterans with history of TBI; test: World Health Organization Disability Assessment Scale 2.0 (WHODAS 2.0); type: in vivo, human; settings: for WHODAS 2.0 Subscale Self Care: baseline 5.2% ± 9.2%; for WHODAS 2.0 Subscale Mobility: baseline 14.7% ± 15.7%
Description: (§2) Thirty, male, navy seal or army special forces veterans, ages 33-58 years (mean 44.5 years), were enrolled. Of the 30 participants, 27 were Caucasian, 1 was Hispanic and 2 were Native American. Body mass index was between 17-35 kg/m^2.
as §1
(§3) Post treatment, each subject was assessed four days after treatment, one month after treatment, and, if willing, one year after treatment. The post-treatment assessments conducted at four days and at one month after treatment included neuropsychological testing, measures of PTSD, depression, anxiety, mystical experiences, functional imaging and EEG. Post-treatment assessments conducted at one year after treatment included PTSD, depression, and anxiety measures.
World Health Organization Disability Assessment Scale 2.0 (WHODAS 2.0) was used as a measure of function. WHODAS was used to assess the impact of health conditions across six life domains (cognition, mobility, self-care, interpersonal, life activities, and community participation) and it is sensitive to change over time (Gold, L. H., J. Am. Acad. Psychiatry Law 42, 9 (2014). Each item in the assessment is rated on a scale ranging from no problems to extreme problems (Üstün, T. B. et al., Measuring health and disability: Manual for WHO disability assessment schedule WHODAS 2.0. (World Health Organization, 2010)). To capture inter-individual variability in disability the WHODAS complex scoring method was used. Raw scores were converted to a metric ranging from 0 (no disability) to 100 (full disability), by calculating the ratio of the participant's score relative to the maximum possible score in each domain as well as to the total score (Id.). A score of 20%-39% was considered mild, 40%-59% was moderate, 60%-79% was moderate-severe and 80%-100% was severe. Scores from baseline were compared to scores from one-month post treatment.

[6] = tested on: special operations veterans with history of TBI; test: MADRS (Montgomery-Asberg Depression Rating Scale), incl. suicidal ideation item Q10; type: in vivo, human
Description: as §1, §3
MADRS testing provides an indication of depressive symptoms, CAPS-5 provides an indication of PTSD and SIGH-A provides an indication of anxiety. Collectively these overlap to provide indication of mood, concentration, sleep and tension.
The MADRS is a clinician-administered 10-item scale assessing the severity of depression symptoms. […] A total score of 0-6 indicates no depression, 7-19 mild depression, 20-34 moderate depression, 35-59 severe depression, and 60+ very severe depressive symptoms (Müller, M. J., J. Affect. Disord. 77, 255-260 (2003)).

cortical neuron = settings: in vitro; literature; cited from earlier work
[7] = tested on: special operations veterans with history of TBI; test: CAPS-5 (Clinician-administered PTSD Scale for DSM-5); type: in vivo, human
Description: as §2, §1
as §3, with “measures. […]” for “measures.”

[8] = tested on: special operations veterans with history of TBI; test: Hamilton Anxiety Rating Scale (HAM-A); type: in vivo, human
Description: as §2, §1
as §3, with “measures. […]” for “measures.”

[9] = tested on: special operations veterans with history of TBI; settings: in vivo
[10] = tested on: special operations veterans with history of TBI; test: Structural T1w MRI (FreeSurfer) regional volume and cortical thickness; type: in vivo, human
Description: Structural imaging of the brain was also conducted on some of the subjects of Example 1. Gray matter constitutes about 40% of the brain and white matter constitutes about 60% of the brain. Gray matter contains most of the brain's neuronal cell nodes, it is fully developed once a person reaches their 20's and interprets sensor information from various parts of the body. White matter is made up of bundles which connect various gray matter areas, it develops throughout the 20's and peaks in middle age. Typical metrics analyzed in anatomical (T1-weighted. “T1w”) imaging include volume and/or shape of nuclei (e.g. caudate), volume and/or shape of ventricles of the brain, and cortical thickness (mm). These metrics can be used to study normal and abnormal neuroanatomy and are primarily used to quantify gray matter. A tool called FreeSurfer was applied to images for a T1w structural analysis (volume, cortical thickness) to adjust for bias, remove non-brain matter, segments by tissue, parcels the brain into standardized regions, and provides measurements of those regions. FreeSurfer measurements of whole brain volume, volume by tissue (gray, white, CSF), estimated intracranial volume (ICV), subcortical gray matter volume, cortical volume by region were done. […] In particular, analysis was done to determine if there was any loss in gray matter volume or cortical thickness, whether there was a loss in white matter volume or an increase in presence of white matter […].
The fMRI images were also inspected to determine the difference in volume in regional areas of the brain from baseline to one month after treatment. FIG. 8A is a bar graph showing the effect size of a change in volume in 47 brain regions indicated along the x-axis. […] The fMRI images were also inspected for whole brain thickness at baseline and one month after treatment. […] FIG. 8B is a bar graph showing the effect size of a cortical thickness change for the brain regions indicated along the x-axis, from baseline to one month after treatment. […] The right and left parahippocampal gyrus are involved in visuospatial processing, including scene perception, navigation, and emotional contextualization. The left orbitofrontal gyrus is involved in impulse control and reward valuation. The left insular cortex is associated with both the affective-perceptual and cognitive-evaluative forms of empathy, as well as awareness of hunger, pain and fatigue. The left entorhinal cortex is a widespread network hub for memory, navigation, and perception of time.

[11] = tested on: N-methyl-D-aspartate, kappa and mu opioid, sigma-1 and -2, nicotinic acetylcholine, serotonin transporter, and dopamine transporter; settings: literature; cited from earlier work
people = settings: in vivo; cited from earlier work
[12] = effect size, Baseline vs One-Month
[13] = effect size, Baseline vs Post-Treatment
[14] = following treatment vs baseline

Compound: CCC1CC2CC3c4[nH]c5ccc(OC)cc5c4CCN(C2)C13 (stereo not drawn) [ibogaine]
- Unexpected or serious treatment-emergent side effects / adverse events ([1]; 30 participants, oral ibogaine 12.1±1.2 mg/kg with iv magnesium sulfate, 1.2 mg/kg): no unexpected or serious treatment-emergent side effects; also recorded: no serious or unexpected adverse events
- Concerning prolongation of QTc ([1]; continuous 5-lead ECG): no instances of a concerning prolongation of QTc
- Participants treated for insomnia ([1]; during oneirogenic effects, 1 participant): 3%
- Participants treated for hypertension ([1]; during oneirogenic effects, 2 participants): 7%
- Participants treated for anxiety ([1]; during oneirogenic effects, 3 participants): 10%
- Participants treated for nausea ([1]; during oneirogenic effects, 7 participants): 23%
- Participants treated for headache ([1]; during oneirogenic effects, 12 participants): 40%
- half-life [2]: about 7.5 hours
- Transcription of neurotrophic factors BDNF and GDNF [3]: increases the transcription
- Estimated brain age compared to aiTBS [4]: reducing in estimated brain age
- WHODAS 2.0 Subscale Self Care ([5]; One-Month, mean, SD 2.9%): 1.0% ±
- WHODAS 2.0 Subscale Mobility ([5]; One-Month, mean, SD 3.3%): 1.3% ±
- WHODAS 2.0 Subscale Cognition ([5]; One-Month, mean, SD 7.9%, baseline 36.1% ± 14.6%): 5.0% ±
- WHODAS 2.0 Subscale Interpersonal ([5]; One-Month, mean, SD 9.5%, baseline 32.3% ± 20.4): 4.8% ±
- WHODAS 2.0 Subscale Community Participation ([5]; One-Month, mean, SD 13.1%, baseline 35.6% ± 21.1%): 5.9% ±
- WHODAS 2.0 Subscale Life Activities ([5]; One-Month, mean, SD 16.2%, baseline 41.1% ± 24.8%): 9.1% ±
- WHODAS 2.0 Subscale Self Care ([5]; Post-Treatment, mean, SD 4.7%): 1.9% ±
- WHODAS 2.0 Subscale Mobility ([5]; Post-Treatment, mean, SD 13.5%): 7.2% ±
- WHODAS 2.0 Subscale Mobility, D [5, 12]: 0.83
- WHODAS 2.0 Subscale Self Care, D [5, 12]: 0.51
- WHODAS 2.0 Subscale Cognition, D [5, 13]: 0.96
- WHODAS 2.0 Subscale Community Participation, D [5, 13]: 0.53
- WHODAS 2.0 Subscale Interpersonal, D [5, 13]: 0.60
- WHODAS 2.0 Subscale Life Activities, D [5, 13]: 0.48
- WHODAS 2.0 Subscale Mobility, D [5, 13]: 0.53
- WHODAS 2.0 Subscale Self Care, D [5, 13]: 0.37
- Suicidal Ideation (MADR Q10), % Reporting ([6]; 1-mo. post, mild TBI, N 28, baseline 46%): 7%
- Cohen's D on clinician rated psychiatric assessments (depression) [6, 14]: > 2
- Remission rate for comorbid depression ([6]; secondary analyses): around 80%
- Cortical neuron dendritic arbor complexity (cortical neuron): increases cortical neuron dendritic arbor complexity
- Cohen's D on clinician rated psychiatric assessments (PTSD) [7, 14]: > 2
- Remission rate for comorbid PTSD ([7]; secondary analyses): around 80%
- Cohen's D on clinician rated psychiatric assessments (anxiety) [8, 14]: > 2
- Remission rate for comorbid anxiety ([8]; secondary analyses): around 80%
- Declines across any performance domain [9]: No declines
- Executive functioning effect size D [9]: 0.31-1.22
- Performance change in language (semantic fluency) [9]: No significant performance changes
- Phonemic Fluency (D-KEFS Verbal Fluency) [9]: 64.0 ± 10.1 T score
- Processing speed effect size D [9]: 0.97-1.34
- Reaction Time (CPT-3 Reaction Time) [9]: 44.1 ± 6.8 T score and 46.4 ± 8.1 T score
- Slowing of reaction time effect size D [9]: 0.29-0.52
- Sustained Attention (CPT-3 Hit Reaction Time Block Change) [9]: 50.8 ± 7.9 T score and 51.2 ± 7.7 T score
- Sustained attention accuracy (detection) effect size D [9]: 0.86-1.05
- Verbal Memory (HVLT-R) [9]: 49.0 ± 9.2 T score
- Working Memory (WMI (WAIS-IV)) ([9]; iv): 57.0 ± 9.5 T score
- White matter hypointensities (corrected for cerebral white matter) ([10]; baseline vs. one month post treatment, two-tailed p = 0.0789): Two-tailed: no significant differences
- Subcortical Gray Matter volume ([10]; baseline vs. one month post treatment, two-tailed p = 0.0949): Two-tailed: no significant differences
- Total Gray Matter volume ([10]; baseline vs. one month post treatment, two-tailed p = 0.4755): Two-tailed: no significant differences
- Cortical Gray Matter volume ([10]; baseline vs. one month post treatment, two-tailed p = 0.4847): Two-tailed: no significant differences
- Right hemisphere mean thickness ([10]; one month after treatment vs baseline, two-tailed): no significant difference
- Left hemisphere mean thickness ([10]; one month after treatment vs baseline, two-tailed p=0.7146): no significant difference
- Affinity for neurotransmitter receptors [11]: moderate-to-weak affinity
- People who may suffer cardiac arrest when treated (people): Approximately 1 in 300

Compound: CC[C@H]1CC2C[C@H]3c4[nH]c5ccc(O)cc5c4CCN(C2)C13 [noribogaine]
- Affinity for neurotransmitter receptors [11]: moderate-to-weak affinity
